target: human DGAT2 (hDGAT2) (Homo sapiens (Human), UniProt Q96PD7); assay: DGAT2 Enzymatic Activity Assay; format: biochemical; settings: membrane prep of Sf-9 insect cells expressing hDGAT2; 13C18-triolein product by LC/MS/MS
How it was run: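 Membranes from Sf-9 cells infected with untagged hDGAT2 baculovirus (8 ng/μL) incubated at rt in 100 mM Tris pH 7.0, 20 mM MgCl2, 5% ethanol with 25 μM diolein and 5 μM 13C oleoyl-CoA. 13C18-triolein product quantified by LC/MS/MS against 13C21-triolein internal standard; IC50 by 4-parameter fit.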

Sequence of human DGAT2 (hDGAT2) (Q96PD7 whole entry): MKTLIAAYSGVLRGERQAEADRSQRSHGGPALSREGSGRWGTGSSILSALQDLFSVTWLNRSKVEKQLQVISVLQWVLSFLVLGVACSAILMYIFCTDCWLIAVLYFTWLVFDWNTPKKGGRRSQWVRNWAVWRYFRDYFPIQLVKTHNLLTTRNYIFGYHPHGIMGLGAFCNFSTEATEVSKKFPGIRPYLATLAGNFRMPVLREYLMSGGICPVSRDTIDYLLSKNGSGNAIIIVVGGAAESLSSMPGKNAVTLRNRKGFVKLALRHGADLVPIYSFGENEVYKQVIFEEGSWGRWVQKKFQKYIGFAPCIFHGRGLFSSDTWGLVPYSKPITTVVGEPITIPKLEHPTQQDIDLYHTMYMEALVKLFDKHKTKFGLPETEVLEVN

Row | Structure (SMILES) | IC50 [nM]
1 | CC(C)n1nc(-c2cc(OC(F)F)ncc2F)c2nnc(C(=O)NC3(C)CCS(=O)(=O)CC3)cc21 [Example 85, 3-(2-(difluoromethoxy)-5-fluoropyridin-4-yl)-1-isopropyl-N-(4-methyl-1,1-dioxidotetrahydro-2H-thiopyran-4-yl)-1H-pyrazolo[4,3-c]pyridazine-6-carboxamide] | 143
2 | CC1(NC(=O)c2cnc3c(-c4cccc(OC(F)F)c4)nn(C4CC(F)(F)C4)c3c2)CS(=O)(=O)C1 [Example 86, 1-(3,3-difluorocyclobutyl)-3-(3-(difluoromethoxy)phenyl)-N-(3-methyl-1,1-dioxidothietan-3-yl)-1H-pyrazolo[4,3-b]pyridine-6-carboxamide] | 24
3 | CC1(NC(=O)c2cnc3c(-c4cccc(OC(F)F)c4)nn(C4CC(O)C4)c3c2)CS(=O)(=O)C1 (stereo not shown) [Example 88, 3-(3-(difluoromethoxy)phenyl)-1-(3-hydroxycyclobutyl)-N-(3-methyl-1,1-dioxidothietan-3-yl)-1H-pyrazolo[4,3-b]pyridine-6-carboxamide] | 80
4 | CC1(C)CC(n2nc(-c3cccc(OC(F)F)c3)c3ncc(C(=O)NC4(C)CS(=O)(=O)C4)cc32)C1 [Example 89, 3-(3-(difluoromethoxy)phenyl)-1-(3,3-dimethylcyclobutyl)-N-(3-methyl-1,1-dioxidothietan-3-yl)-1H-pyrazolo[4,3-b]pyridine-6-carboxamide] | 2.9
5 | CC(C(N)=O)n1nc(-c2cc(OC(F)F)ccc2F)c2ncc(C(=O)NC3(C)CS(=O)(=O)C3)cc21 (stereo not shown) [Example 90, 1-(1-amino-1-oxopropan-2-yl)-3-(5-(difluoromethoxy)-2-fluorophenyl)-N-(3-methyl-1,1-dioxidothietan-3-yl)-1H-pyrazolo[4,3-b]pyridine-6-carboxamide] | 480
6 | CC(C)n1nc(-c2cccc(OC(F)F)c2)c2c(C#N)cc(C(=O)NC3(C)CS(=O)(=O)C3)cc21 [Example 91, 4-cyano-3-(3-(difluoromethoxy)phenyl)-1-isopropyl-N-(3-methyl-1,1-dioxidothietan-3-yl)-1H-indazole-6-carboxamide] | 2
7 | CC(C)n1nc(-c2cccc(C3CC3)c2)c2ncc(C(=O)NC3(C)CS(=O)(=O)C3)cc21 [Example 92, 3-(3-cyclopropylphenyl)-1-isopropyl-N-(3-methyl-1,1-dioxidothietan-3-yl)-1H-pyrazolo[4,3-b]pyridine-6-carboxamide] | 31
8 | CC(C)n1nc(-c2cccc(C(C)(F)F)c2)c2ncc(C(=O)NC3(C)CS(=O)(=O)C3)cc21 [Example 93, 3-[3-(1,1-difluoroethyl)phenyl]-1-isopropyl-N-(3-methyl-1,1-dioxo-thietan-3-yl)pyrazolo[4,3-b]pyridine-6-carboxamide] | 210
9 | CC(C)n1nc(-c2cccc(OCC(F)F)c2)c2ncc(C(=O)NC3(C)CS(=O)(=O)C3)cc21 [Example 94, 3-[3-(2,2-difluoroethoxy)phenyl]-1-isopropyl-N-(3-methyl-1,1-dioxo-thietan-3-yl)pyrazolo[4,3-b]pyridine-6-carboxamide] | 7
10 | CC(C)n1nc(-c2cncc(OC(F)F)c2)c2ncc(C(=O)NC3(C)CS(=O)(=O)C3)cc21 [Example 95, 3-[5-(difluoromethoxy)-3-pyridyl]-1-isopropyl-N-(3-methyl-1,1-dioxo-thietan-3-yl)pyrazolo[4,3-b]pyridine-6-carboxamide] | 26
11 | CC(C)n1nc(-c2cccc(OC(F)F)n2)c2ncc(C(=O)NC3(C)CS(=O)(=O)C3)cc21 [Example 96, 3-[6-(difluoromethoxy)-2-pyridyl]-1-isopropyl-N-(3-methyl-1,1-dioxo-thietan-3-yl)pyrazolo[4,3-b]pyridine-6-carboxamide] | 5540
12 | CC(C)n1nc(-c2cccc(OC3CC3)c2)c2ncc(C(=O)NC3(C)CS(=O)(=O)C3)cc21 [Example 97, 3-[3-(cyclopropoxy)phenyl]-1-isopropyl-N-(3-methyl-1,1-dioxo-thietan-3-yl)pyrazolo[4,3-b]pyridine-6-carboxamide] | 0.9
13 | CC(C)n1nc(-c2cc(OC(F)F)ccn2)c2ncc(C(=O)NC3(C)CS(=O)(=O)C3)cc21 [Example 98, 3-[4-(difluoromethoxy)-2-pyridyl]-1-isopropyl-N-(3-methyl-1,1-dioxo-thietan-3-yl)pyrazolo[4,3-b]pyridine-6-carboxamide] | 690
14 | CC(C)n1nc(-c2cncc(OC(F)F)c2)c2ncc(C(=O)N[C@H]3CCCC[C@@H]3O)cc21 [Example 99, 3-[5-(difluoromethoxy)-3-pyridyl]-N-[(1S,2S)-2-hydroxycyclohexyl]-1-isopropyl-pyrazolo[4,3-b]pyridine-6-carboxamide] | 52

Second part, the compound after the results:

Row | IC50 [nM] | Structure (SMILES)
15 | 139 | CC(C)n1nc(-c2ccnc(OC(F)F)c2)c2ncc(C(=O)NC3(C)CS(=O)(=O)C3)cc21 [Example 100, 3-[2-(difluoromethoxy)-4-pyridyl]-1-isopropyl-N-(3-methyl-1,1-dioxo-thietan-3-yl)pyrazolo[4,3-b]pyridine-6-carboxamide]
16 | 85 | CC(C)n1nc(-c2cncc(C3CC3)c2)c2ncc(C(=O)NC3(C)CS(=O)(=O)C3)cc21 [Example 101, 3-(5-cyclopropyl-3-pyridyl)-1-isopropyl-N-(3-methyl-1,1-dioxo-thietan-3-yl)pyrazolo[4,3-b]pyridine-6-carboxamide]
17 | 7100 | CC(C)n1nc(-c2cccc(S(C)(=O)=O)c2)c2ncc(C(=O)NC3(C)CS(=O)(=O)C3)cc21 [Example 102, 1-isopropyl-N-(3-methyl-1,1-dioxo-thietan-3-yl)-3-(3-methylsulfonylphenyl)pyrazolo[4,3-b]pyridine-6-carboxamide]
18 | 119 | CC(C)n1nc(-c2cccc(F)c2)c2ncc(C(=O)NC3(C)CS(=O)(=O)C3)cc21 [Example 104, 3-(3-fluorophenyl)-1-isopropyl-N-(3-methyl-1,1-dioxo-thietan-3-yl)pyrazolo[4,3-b]pyridine-6-carboxamide]
19 | 78 | CC(C)n1nc(-c2cncc(OC(F)F)c2)c2ncc(C(=O)N[C@H]3CCC[C@H]3O)cc21 [Example 105, 3-(5-(difluoromethoxy)pyridin-3-yl)-N-((1S,2R)-2-hydroxycyclopentyl)-1-isopropyl-1H-pyrazolo[4,3-b]pyridine-6-carboxamide]
20 | 46 | CC(C)n1nc(-c2cncc(OC3CC3)c2)c2ncc(C(=O)NC3(C)CS(=O)(=O)C3)cc21 [Example 106, 3-(5-cyclopropoxypyridin-3-yl)-1-isopropyl-N-(3-methyl-1,1-dioxidothietan-3-yl)-1H-pyrazolo[4,3-b]pyridine-6-carboxamide]
21 | 2280 | CC(C)n1nc(-c2cccc(C3(C(F)(F)F)CC3)c2)c2ncc(C(=O)NC3(C)CS(=O)(=O)C3)cc21 [Example 107, 1-isopropyl-N-(3-methyl-1,1-dioxidothietan-3-yl)-3-(3-(1-(trifluoromethyl)cyclopropyl)phenyl)-1H-pyrazolo[4,3-b]pyridine-6-carboxamide]
22 | 109 | CC(C)n1nc(-c2cccc(C#N)c2)c2ncc(C(=O)NC3(C)CS(=O)(=O)C3)cc21 [Example 108, 3-(3-cyanophenyl)-1-isopropyl-N-(3-methyl-1,1-dioxidothietan-3-yl)-1H-pyrazolo[4,3-b]pyridine-6-carboxamide]

Source: patent US20240059700A1, “NOVEL DIACYLGLYCERIDE O-ACYLTRANSFERASE 2 INHIBITORS” (Merck Sharp & Dohme LLC, priority 2020, published 2024)
